From ChEMBL document CHEMBL1148638, “Aminopyridine-based c-Jun N-terminal kinase inhibitors with cellular activity and minimal cross-kinase activity” (J Med Chem, 2006)

Legend:
[1] = molecular target: c-Jun N-terminal kinase, JNK (Homo sapiens, UniProt P45983+P53779+P45984); experiment: Inhibition of cJun phosphorylation in HepG2 cell line
[2] = molecular target: Mitogen-activated protein kinase 8 (Homo sapiens, UniProt P45983); experiment: Inhibition of JNK1-mediated ATF2 phosphorylation
[3] = molecular target: Mitogen-activated protein kinase 9 (Homo sapiens, UniProt P45984); experiment: Inhibition of JNK2-mediated ATF2 phosphorylation
Mitogen-activated protein kinase 9, sequence (P45984 whole entry): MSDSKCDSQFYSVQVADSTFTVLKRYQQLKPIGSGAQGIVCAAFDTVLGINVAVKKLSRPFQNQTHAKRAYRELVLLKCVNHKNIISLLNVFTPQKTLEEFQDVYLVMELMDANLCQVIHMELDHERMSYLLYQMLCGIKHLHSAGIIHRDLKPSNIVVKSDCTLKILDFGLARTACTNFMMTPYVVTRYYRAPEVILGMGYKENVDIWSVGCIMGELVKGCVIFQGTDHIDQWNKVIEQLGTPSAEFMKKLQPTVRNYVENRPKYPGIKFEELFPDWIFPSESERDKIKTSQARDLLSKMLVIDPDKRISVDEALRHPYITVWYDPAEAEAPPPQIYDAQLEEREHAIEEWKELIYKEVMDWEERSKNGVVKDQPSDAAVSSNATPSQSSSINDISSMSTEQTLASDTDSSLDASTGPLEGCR

Mitogen-activated protein kinase 8, sequence (P45983 whole entry): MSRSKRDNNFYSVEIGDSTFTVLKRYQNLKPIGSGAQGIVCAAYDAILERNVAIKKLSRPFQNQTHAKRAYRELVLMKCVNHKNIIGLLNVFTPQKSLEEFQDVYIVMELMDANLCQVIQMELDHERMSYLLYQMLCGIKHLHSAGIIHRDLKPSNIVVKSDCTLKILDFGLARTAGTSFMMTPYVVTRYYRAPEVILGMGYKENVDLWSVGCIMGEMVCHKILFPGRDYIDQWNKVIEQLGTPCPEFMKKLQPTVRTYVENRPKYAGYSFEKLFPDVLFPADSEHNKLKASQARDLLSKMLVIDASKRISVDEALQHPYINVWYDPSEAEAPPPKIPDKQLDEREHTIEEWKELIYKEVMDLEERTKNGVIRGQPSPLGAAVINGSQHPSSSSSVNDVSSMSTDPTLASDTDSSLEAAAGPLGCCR

Row | EC50 [1] [nM] | IC50 [2] [nM] | IC50 [3] [nM] | Structure (SMILES)
1 | 3400 | 190 | 360 | CCOc1nc(NC(=O)Cc2ccc(C)cc2)cc(N)c1C#N
2 | 1600 | 74 | 240 | COc1ccc(OC)c(CC(=O)Nc2cc(N)c(C#N)c(OCCO)n2)c1
3 | 890 |  | 160 | CCOc1nc(NC(=O)Cc2cc(OC)c(Br)cc2OC)cc(N)c1C#N
4 |  | 400 | 740 | COc1ccc(OC)c(CC(=O)Nc2cc(N)c(C#N)c(OCCS(C)(=O)=O)n2)c1
5 |  | 1100 | 4900 | CCOc1nc(NC(=O)Cc2ccccc2Cl)cc(N)c1C#N
6 |  | 270 | 1200 | CCOc1nc(NC(=O)CN2CCOCC2)cc(N)c1C#N
7 |  | > 10000 | > 10000 | CCOc1nc(NC(=O)OC)cc(N)c1C#N
8 |  | 3000 | > 10000 | CCOc1nc(NC(=O)Cc2cc(Br)ccc2Br)cc(N)c1C#N
9 |  | 2600 | 5100 | COc1ccc(OC)c(CC(=O)Nc2cc(N)c(C#N)cn2)c1
10 | 2500 | 210 | 310 | CCOc1nc(NC(=O)Cc2cccc(OC)c2)cc(N)c1C#N
11 |  | > 10000 | > 10000 | CCCCC(=O)Nc1nc(OCC)c(C#N)c(N)c1Cl
12 |  | 2700 | 6300 | CCOc1nc(NC(=O)CN(CC)CC)cc(N)c1C#N
13 |  | > 10000 | > 10000 | CC(=O)Nc1cc(N)c(C#N)c(OCCN(C)C)n1
14 |  | > 10000 | > 10000 | CCCc1nc(NC(C)=O)cc(N)c1C#N
15 |  | > 10000 | > 10000 | CCOc1cc(NC(C)=O)nc(N)c1C#N
16 | 1400 | 110 | 270 | COCCOc1nc(NC(=O)Cc2cc(OC)ccc2OC)cc(N)c1C#N
17 |  | > 10000 | > 10000 | CCOc1nc(NCCc2cc(OC)ccc2OC)cc(N)c1C#N
18 | > 10000 | 69 | 180 | CCCCNC(=O)C1CCN(CC(=O)Nc2cc(N)c(C#N)c(OCC)n2)CC1
19 |  | > 10000 | > 10000 | CCNC(=O)Nc1cc(N)c(C#N)c(OCC)n1
20 |  | 4400 | > 10000 | CCOc1nc(NC(=O)Cc2cc(C)ccc2C)cc(N)c1C#N
21 | 1400 | 120 | 260 | CCOc1nc(NC(=O)Cc2ccccc2OC)cc(N)c1C#N
22 |  | 2400 | > 10000 | CCNc1nc(NC(C)=O)cc(N)c1C#N
23 | 3900 | 87 | 130 | CCOc1nc(NC(=O)CN2CCC(C(=O)NC(C)C)CC2)cc(N)c1C#N
24 | 280 | 35 | 26 | CCOc1nc(NC(=O)Cc2cc(OC)c(NC(C)=O)cc2OC)cc(N)c1C#N
25 |  | 570 | 770 | CCOc1nc(NC(=O)Cc2ccccc2)cc(N)c1C#N

Row | EC50 [1] [nM] | IC50 [2] [nM] | IC50 [3] [nM] | Structure (SMILES)
26 |  |  | > 10000 | CCOc1cccc(NC(C)=O)n1
27 |  | 350 | 690 | CCCCC(=O)Nc1cc(N)c(C#N)c(OCC)n1
28 |  | 300 | 640 | CCOc1nc(NC(=O)CN2CCC(O)CC2)cc(N)c1C#N
29 | 1400 | 180 | 274 | CCOc1nc(NC(=O)Cc2ccc(OC)cc2)cc(N)c1C#N
30 |  | 300 | 900 | CCOc1nc(NC(=O)Cc2cccc(Cl)c2)cc(N)c1C#N
31 |  | 890 | 2900 | CC(=O)Nc1cc(N)c(C#N)c(OC2CCOC2)n1 (stereo not given)
32 |  | 310 | 470 | CC(=O)Nc1cc(N)c(C#N)c(OC(C)C)n1
33 |  | 580 | 610 | CCOc1nc(NC(=O)Cc2ccc(Cl)cc2)cc(N)c1C#N
34 |  | 510 | 3400 | CCOc1nc(NC(=O)CN2CCCCC2)cc(N)c1C#N
35 |  | 3500 | > 10000 | CCCCN(CCCC)CC(=O)Nc1cc(N)c(C#N)c(OCC)n1
36 |  | 6300 | > 10000 | CCCCNCC(=O)Nc1cc(N)c(C#N)c(OCC)n1
37 |  | 4800 | 4900 | CC(=O)Nc1cc(N)c(C#N)c(OCCC(=O)O)n1
38 |  | 1400 | 3500 | CCOc1nc(NC(=O)CC(C)C)cc(N)c1C#N
39 |  | 4000 | 8400 | CCOc1nc(NC(=O)C(C)C)cc(N)c1C#N
40 |  | > 10000 | > 10000 | CCCCC(=O)N(C)c1cc(N)c(C#N)c(OCC)n1
41 |  | 910 | 3000 | CC(=O)Nc1cc(N)c(C#N)c(NC(C)C)n1
42 | 910 | 69 | 100 | CCOc1nc(NC(=O)Cc2cc(OC)c([N+](=O)[O-])cc2OC)cc(N)c1C#N
43 |  | 400 | 740 | CCOc1nc(NC(=O)Cc2ccccc2C)cc(N)c1C#N
44 | 5500 | 160 | 740 | CCCN(CCO)CC(=O)Nc1cc(N)c(C#N)c(OCC)n1
45 |  | 1700 | > 10000 | COc1ccc(OC)c(CC(=O)Nc2cc(N)c(C#N)c(Br)n2)c1
46 |  | > 10000 | > 10000 | CCOc1nc(NC(C)=O)cc(C)c1C#N
47 |  | 2200 | 4500 | COc1nc(NC(C)=O)cc(N)c1C#N
48 |  | 2100 | 4660 | CCCCOc1nc(NC(C)=O)cc(N)c1C#N
49 |  | 420 | 790 | CCOc1nc(NC(=O)Cc2cccc(C)c2)cc(N)c1C#N
50 |  | 8900 | > 10000 | CCCCSc1nc(NC(C)=O)cc(N)c1C#N
